Reference: PMC11640089, “JRM-28, a Novel HDAC2 Inhibitor, Upregulates Plasticity-Associated Proteins in Hippocampal Neurons and Enhances Morphological Plasticity via Activation of CREB: Implications for Alzheimer’s Disease” (Cells, 2024)
Several values for one entry are separate records, joined by “and”; a condition that tells them apart may be missing. Identical values can stand only once. Like-named read-outs stand apart in the source and are kept apart here. Each block holds one compound with its values, some of them ahead of it.

Experiments:
HDAC6 = molecular target: T1, HDAC6 (Homo sapiens, UniProt Q9UBN7); assay: Fluorimetric HDAC inhibition assay, HDAC6; assay type: biochemical; details: reduced with DTT
T1 construct: purchased BPS Bioscience 50056
T1 sequence (Q9UBN7 1-1215): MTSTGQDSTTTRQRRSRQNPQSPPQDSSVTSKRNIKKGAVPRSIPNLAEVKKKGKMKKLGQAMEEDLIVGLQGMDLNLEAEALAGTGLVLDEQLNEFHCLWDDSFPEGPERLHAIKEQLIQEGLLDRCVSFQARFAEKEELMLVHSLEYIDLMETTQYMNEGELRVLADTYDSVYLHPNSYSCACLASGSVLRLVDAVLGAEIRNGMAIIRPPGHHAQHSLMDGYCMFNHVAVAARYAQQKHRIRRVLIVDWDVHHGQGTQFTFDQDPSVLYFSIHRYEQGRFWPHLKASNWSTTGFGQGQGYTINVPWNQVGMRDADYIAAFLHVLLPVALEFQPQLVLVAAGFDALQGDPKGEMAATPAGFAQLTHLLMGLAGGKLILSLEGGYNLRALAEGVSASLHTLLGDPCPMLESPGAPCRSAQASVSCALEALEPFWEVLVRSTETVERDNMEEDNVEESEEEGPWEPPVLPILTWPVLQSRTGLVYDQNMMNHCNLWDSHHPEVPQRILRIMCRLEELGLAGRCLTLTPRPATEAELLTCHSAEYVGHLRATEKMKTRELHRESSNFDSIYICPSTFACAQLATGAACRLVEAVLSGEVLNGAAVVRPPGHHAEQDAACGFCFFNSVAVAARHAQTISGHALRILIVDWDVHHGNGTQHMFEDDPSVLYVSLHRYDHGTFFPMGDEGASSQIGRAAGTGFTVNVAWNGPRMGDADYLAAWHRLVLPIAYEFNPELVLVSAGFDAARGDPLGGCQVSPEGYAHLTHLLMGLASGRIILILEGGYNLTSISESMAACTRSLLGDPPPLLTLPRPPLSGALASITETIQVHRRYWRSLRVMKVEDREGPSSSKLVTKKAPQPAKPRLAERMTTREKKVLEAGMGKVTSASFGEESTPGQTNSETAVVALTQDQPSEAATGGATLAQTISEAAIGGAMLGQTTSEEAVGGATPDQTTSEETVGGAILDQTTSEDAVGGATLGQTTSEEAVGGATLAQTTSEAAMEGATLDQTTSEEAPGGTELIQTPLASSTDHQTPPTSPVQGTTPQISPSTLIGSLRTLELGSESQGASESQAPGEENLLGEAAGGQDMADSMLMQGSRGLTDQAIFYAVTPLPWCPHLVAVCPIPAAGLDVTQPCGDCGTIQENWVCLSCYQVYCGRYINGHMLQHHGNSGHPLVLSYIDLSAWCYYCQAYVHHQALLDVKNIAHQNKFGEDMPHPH
Description: The inhibition of HDAC1, 2, 3, and 6 by JRM-28 was fluorometrically measured using the HDAC Fluorogenic Assay Kit (Catalog# 50034) by BPS bioscience. Purified recombinant human HDAC1 (Cat# 50051), HDAC3 (Cat# 50003), and HDAC6 (Cat# 50056) were also obtained from BPS Bioscience. The enzyme inhibition assay was performed according to the manufacturer’s protocol. […] Purified recombinant HDAC2 (supplied with the fluorogenic kit) was diluted to 6 ng/µL (5 µL/well with the supplied HDAC assay buffer). HDAC 1, 3, and 6 were also diluted to the optimized concentration (5 µL/well) with the HDAC assay buffer. The activity of JRM-28 was measured along with DTT control and DMSO as blank. After adding 5 µL of the diluted HDAC enzymes in designated wells, the 96-well plate (supplied with the kit) was incubated at 37 °C. Then, the reaction was initiated by adding 5 µL of diluted HDAC substrate to each well, followed by another incubation at 37 °C for 30 min. Next, 50 µL of the developer reagent was added to each well and incubated at room temperature for another 15 min. Finally, fluorescence was measured by a microplate absorbance spectrophotometer (PerkinElmer Enspire 2300 Multilabel Multimode Microplate Reader) with an excitation at λ = 485 nm and detection at λ = 528 nm.

HDAC2 = HDAC2 (Homo sapiens, UniProt Q92769); assay: HDAC2 inhibition assay, luminometric method (HDAC-Glo I/II); assay type: biochemical; set-up: purchased BPS Bioscience 50002; details: HDAC2 0.5 nM, read-out: IC50 HDAC2 inhibition (luminescence)
Chain of HDAC2 (Q92769 whole entry): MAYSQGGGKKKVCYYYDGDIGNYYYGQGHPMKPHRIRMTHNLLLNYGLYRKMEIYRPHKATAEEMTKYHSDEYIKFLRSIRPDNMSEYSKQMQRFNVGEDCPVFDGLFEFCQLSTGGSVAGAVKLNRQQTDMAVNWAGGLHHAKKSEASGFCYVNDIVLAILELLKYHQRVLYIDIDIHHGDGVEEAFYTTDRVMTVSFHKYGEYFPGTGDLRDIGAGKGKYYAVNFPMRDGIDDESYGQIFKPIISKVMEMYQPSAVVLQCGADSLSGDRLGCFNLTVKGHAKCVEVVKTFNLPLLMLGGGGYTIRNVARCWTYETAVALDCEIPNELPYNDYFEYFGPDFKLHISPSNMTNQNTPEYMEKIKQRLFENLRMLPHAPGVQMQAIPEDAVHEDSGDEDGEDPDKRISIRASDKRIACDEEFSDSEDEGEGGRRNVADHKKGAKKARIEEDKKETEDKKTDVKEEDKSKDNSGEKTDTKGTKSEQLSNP
Description: HDAC2 inhibition assay was performed by either the luminometric or fluorimetric method applying the following procedures. The table (Table 1) represents the details of different HDAC proteins and antibodies used in all biochemical assays.
HDAC2 inhibition assay was performed by HDAC-Glo™ I/II Assays and Screening System (Catalog# G6420, Promega Corporation, Madison, WI, USA) by the luminometric method according to the manufacturer’s protocol. […] The HDAC-2 inhibition assay was performed as previously described to determine IC values. In brief, the purified HDAC2 was diluted in HDAC assay buffer (provided with the HDAC-Glo™ I/II Assays and Screening System) to the same concentration based on their calculated molar mass. […] Next, 10 µL of JRM-28 after serial dilution was added to 10 µL of diluted HDAC2 in such a way that the final HDAC2 concentration was 0.5 nM in each well of a 384-well microplate (Greiner, Kremsmünster, Austria). After 30 min of incubation, 20 µL of the HDAC-Glo substrate/developing reagent was added to each well according to the manufacturer’s instructions. The 384-well plate was then agitated on an orbital shaker for the mixing of components in each well for another 30 min at room temperature. Finally, luminescence was measured using a POLARstar Omega plate reader (BMG Labtech, Ortenberg, Germany).

Hill coefficient HDAC6 (fluorimetric) (HDAC6): −5.116
SMILES: CN(C(=O)C[C@@H](O)/C=C/CCS(=O)O)c1ccccc1 [JRM-28a]

IC50 (HDAC2; without DTT (non-reduced dimer)): 12.9 µM
SMILES: CN(C(=O)CC(O)/C=C/CCSSCC/C=C/C(O)CC(=O)N(C)c1ccccc1)c1ccccc1 (stereo not drawn) [JRM-20, (4E,4’E)-7,7’-disulfanediylbis(3-hydroxy-N-methyl-N-phenylhept-4-enamide)]

IC50 (HDAC2; in the presence of DTT (reduced)): 2.7 µM and 2.71 µM
SMILES: CN(C(=O)C[C@@H](O)/C=C/CCS)c1ccccc1 [JRM-28b]
